Among the data in patent US6844435B2, “Heterocyclic compounds useful as inhibitors of tyrosine kinases” (Boehringer Ingelheim Pharmaceuticals, Inc., priority 2000, dated 2005) are melting point values, retold here.

Regarding `Cn1c(Nc2c(Cl)cccc2Cl)nc2ccc3nc(C4CC4)[nH]c(=O)c3c21` [Example 59], the melting point (in general, the temperature of the solid-liquid transition) was > 300 °C.

As for `Cn1c(Nc2c(Cl)cccc2Cl)nc2ccc3nc(C(=O)c4ccccc4)[nH]c(=O)c3c21` [Example 60], the melting point was 280 °C (dec.).

Turning to `CN1CCN(S(=O)(=O)c2cccc(-c3nc4ccc5nc(Nc6c(Cl)cccc6Cl)n(C)c5c4c(=O)[nH]3)c2)CC1` [Example 61], the melting point is 215 °C (dec.).

`CNc1nc2ccc3nc(Nc4c(Cl)cccc4Cl)n(C)c3c2c(=O)[nH]1` [Example 62] showed a melting point of 198 to 204 °C.

Take `CC(C)=C(C)c1nc2ccc3nc(Nc4c(Cl)cccc4Cl)n(C)c3c2c(=O)[nH]1` [Example 63]: the melting point is > 300 °C.

`CCCCCc1nc2ccc3nc(Nc4c(Cl)cccc4Cl)n(C)c3c2c(=O)[nH]1` [Example 64] yielded a melting point of 257 to 260 °C.

In the case of `Cn1c(Nc2c(Cl)cccc2Cl)nc2ccc3nc(C4=CC(N5CCN(C(=O)OC(C)(C)C)CC5)CC4)[nH]c(=O)c3c21` (centres unmarked) [Example 65], the melting point was 168 to 170 °C.

For the compound `Cn1c(Nc2c(Cl)cccc2Cl)nc2ccc3nc(C4=CC(O)CC4)[nH]c(=O)c3c21` (centres unmarked) [Example 66], the melting point was 285 °C.

`Cn1c(Nc2c(Cl)cccc2Cl)nc2ccc3nc(-c4cccc(S(=O)(=O)N5CCN(C(=O)OC(C)(C)C)CC5)c4)[nH]c(=O)c3c21` [Example 67] came in with a melting point of 189 °C.

`Cn1c(Nc2c(Cl)cccc2Cl)nc2ccc3nc(-c4cccc(S(=O)(=O)N5CCNCC5)c4)[nH]c(=O)c3c21` [Example 68] yielded a melting point of 210 °C.

`Cn1c(Nc2c(Cl)cccc2Cl)nc2ccc3nc(C4=CCC(C#N)C4)[nH]c(=O)c3c21` (centres unmarked) [Example 69]: the melting point is > 295 °C (dec.).

Turning to `C/C(=C\c1cccc(C#N)c1)c1nc2ccc3nc(Nc4c(Cl)cccc4Cl)n(C)c3c2c(=O)[nH]1` [Example 70], the melting point was 288 to 290 °C.

`C/C(=C\c1ccccc1[N+](=O)[O-])c1nc2ccc3nc(Nc4c(Cl)cccc4Cl)n(C)c3c2c(=O)[nH]1` [Example 71] registered a melting point of 290 to 292 °C.

As to `CC(=O)C1CC=C(c2nc3ccc4nc(Nc5c(Cl)cccc5Cl)n(C)c4c3c(=O)[nH]2)C1` (centres unmarked) [Example 72], the melting point is > 215 °C (dec.).

Turning to `Cn1c(Nc2c(Cl)cccc2Cl)nc2ccc3nc(-c4csc([C@H]5CCCN5C(=O)OCc5ccccc5)n4)[nH]c(=O)c3c21` [Example 73], the melting point was found to be 209 °C.

Take `Cn1c(Nc2c(Cl)cccc2Cl)nc2ccc3nc(-c4csc([C@@H]5CCCC[C@H]5NC(=O)OCc5ccccc5)n4)[nH]c(=O)c3c21` [Example 75]: the melting point was in the range of 163 to 169 °C.

Regarding `Cn1c(Nc2c(Cl)cccc2Cl)nc2ccc3nc(-c4csc(CC5CCCN(C(=O)OCc6ccccc6)C5)n4)[nH]c(=O)c3c21` (centres unmarked) [Example 76], the melting point was in the range of 155 to 160 °C.

For the compound `Cn1c(Nc2c(Cl)cccc2Cl)nc2ccc3nc(-c4csc([C@@H]5CCCC[C@H]5N)n4)[nH]c(=O)c3c21` [Example 77], the melting point is 295 to 300 °C (dec.).

`Cn1c(Nc2c(Cl)cccc2Cl)nc2ccc3nc(-c4csc(CC5CCCNC5)n4)[nH]c(=O)c3c21` (centres unmarked) [Example 78] came in with a melting point of 161 to 166 °C.

Consider `Cc1nc(-c2nc3ccc4nc(Nc5c(Cl)cccc5Cl)n(C)c4c3c(=O)[nH]2)cs1` [Example 79], for which the melting point is 295 °C (dec.).

For `C/C(=C\c1ccccc1N)c1nc2ccc3nc(Nc4c(Cl)cccc4Cl)n(C)c3c2c(=O)[nH]1` [Example 80], the melting point lay in the range of 310 to 313 °C.

In the case of `Cn1c(Nc2c(Cl)cccc2Cl)nc2ccc3nc(C4=CC(=O)CC4)[nH]c(=O)c3c21` [Example 81], the melting point was > 300 °C.

In the case of `Cn1c(Nc2c(Cl)cccc2Cl)nc2ccc3nc(C4=CCN(C(=O)OC(C)(C)C)C4)[nH]c(=O)c3c21` [Example 83], the melting point was 206 to 208 °C.

As for `C/C(=C\c1cccc(N)c1)c1nc2ccc3nc(Nc4c(Cl)cccc4Cl)n(C)c3c2c(=O)[nH]1` [Example 84], the melting point was > 300 °C (dec.).

`CC(=O)OCC(=O)N1CCN(S(=O)(=O)c2cccc(-c3nc4ccc5nc(Nc6c(Cl)cccc6Cl)n(C)c5c4c(=O)[nH]3)c2)CC1` [Example 85]: the melting point was 246 °C (dec.).

Consider `Cn1c(Nc2c(Cl)cccc2Cl)nc2ccc3nc(C4=CCNC4)[nH]c(=O)c3c21` [Example 86], for which the melting point is 240 to 241 °C (dec.).

In turn, `CCCCCC1NC(=O)c2c(ccc3nc(Nc4c(Cl)cccc4Cl)n(C)c23)N1C` (centres unmarked) [Example 87] registered a melting point of 126 to 128 °C.

Compound `CN1c2ccc3nc(Nc4c(Cl)cccc4Cl)n(C)c3c2C(=O)NC1c1ccccc1` (centres unmarked) [Example 88] showed a melting point of 228 to 230 °C.

On to `C/C(=C\c1cccc(CN)c1)c1nc2ccc3nc(Nc4c(Cl)cccc4Cl)n(C)c3c2c(=O)[nH]1` [Example 89], for which the melting point was 197 to 205 °C.

For `Cn1c(Nc2c(Cl)cccc2Cl)nc2ccc3nc(-c4cccc(S(=O)(=O)N5CCN(C(=N)N)CC5)c4)[nH]c(=O)c3c21` [Example 90], the melting point was determined as 215 °C.

Turning to `Cn1c(Nc2c(Cl)cccc2Cl)nc2ccc3nc(-c4cccc(S(=O)(=O)N5CCN(C(=O)CO)CC5)c4)[nH]c(=O)c3c21` [Example 91], the melting point is > 300 °C.

As to `[H]/N=C(/N)c1cccc(/C=C(\C)c2nc3ccc4nc(Nc5c(Cl)cccc5Cl)n(C)c4c3c(=O)[nH]2)c1` [Example 92], the melting point is > 300 °C.

On to `Cn1c(Nc2c(Cl)cccc2Cl)nc2ccc3nc(C4=CC5CN(C(=O)OC(C)(C)C)CC5C4)[nH]c(=O)c3c21` (centres unmarked) [Example 94], for which the melting point was 210 to 215 °C.

For the compound `Cn1c(Nc2c(Cl)cccc2Cl)nc2ccc3nc(C4=CC5CNCC5C4)[nH]c(=O)c3c21` (centres unmarked) [Example 95], the melting point is 265 °C (dec.).

For the compound `Cn1c(Nc2c(Cl)cccc2Cl)nc2ccc3nc(-c4ccc(S(=O)(=O)N5CCN(C(=O)OC(C)(C)C)CC5)cc4)[nH]c(=O)c3c21` [Example 96], the melting point amounted to 190 °C.

On to `Cn1c(Nc2c(Cl)cccc2Cl)nc2ccc3nc(-c4csc([C@H]5CCCN5)n4)[nH]c(=O)c3c21` [Example 98], for which the melting point is 290 °C (dec.).

Take `C/C(=C\c1cc(N)cc(N)c1)c1nc2ccc3nc(Nc4c(Cl)cccc4Cl)n(C)c3c2c(=O)[nH]1` [Example 99]: the melting point is 195 to 200 °C (dec.).

With `Cn1c(Nc2c(Cl)cccc2Cl)nc2ccc3nc(-c4ccc(S(=O)(=O)N5CCNCC5)cc4)[nH]c(=O)c3c21` [Example 100], the melting point is 246 °C.

Turning to `C/C(=C\c1cccc(NC(=N)N)c1)c1nc2ccc3nc(Nc4c(Cl)cccc4Cl)n(C)c3c2c(=O)[nH]1` [Example 101], the melting point was 170 °C (dec.).

Turning to `C/C(=C\c1ccccc1C#N)c1nc2ccc3nc(Nc4c(Cl)cccc4Cl)n(C)c3c2c(=O)[nH]1` [Example 102], the melting point was 284 to 288 °C.

On to `C/C(=C\c1cc(N/C(=N\C(=O)OC(C)(C)C)NC(=O)OC(C)(C)C)cc(N/C(=N\C(=O)OC(C)(C)C)NC(=O)OC(C)(C)C)c1)c1nc2ccc3nc(Nc4c(Cl)cccc4Cl)[nH]c3c2c(=O)[nH]1` [Example 103], for which the melting point is > 300 °C.
